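Cells were grown in 96-well plates and exposed to each compound for 48 hours at five concentrations; endpoints were interpolated linearly between bracketing concentrations, or set to the highest concentration if not reached. TGI: concentration producing complete growth inhibition.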
Experiments:
Assay in all cases: NCI-60 cell line screen, 48 h
ACHN renal = test system: ACHN renal
CAKI-1 renal = test system: CAKI-1 renal
KM12 colon = test system: KM12 colon
NCI-H522 lung = test system: NCI-H522 lung
OVCAR-3 ovarian = test system: OVCAR-3 ovarian
OVCAR-5 ovarian = test system: OVCAR-5 ovarian
OVCAR-8 ovarian = test system: OVCAR-8 ovarian
RPMI-8226 leukemia = test system: RPMI-8226 leukemia
SF-295 CNS = test system: SF-295 CNS
SK-MEL-2 melanoma = test system: SK-MEL-2 melanoma
SK-MEL-28 melanoma = test system: SK-MEL-28 melanoma
U251 CNS = test system: U251 CNS
UO-31 renal = test system: UO-31 renal
MCF7 breast = test system: MCF7 breast

Structure (SMILES) | TGI (ACHN renal) | TGI (CAKI-1 renal) | TGI (KM12 colon) | TGI (NCI-H522 lung) | TGI (OVCAR-3 ovarian) | TGI (OVCAR-5 ovarian) | TGI (OVCAR-8 ovarian) | TGI (RPMI-8226 leukemia) | TGI (SF-295 CNS) | TGI (SK-MEL-2 melanoma) | TGI (SK-MEL-28 melanoma) | TGI (U251 CNS) | TGI (UO-31 renal) | TGI (MCF7 breast)
c1ccc2c(NCCCCCCCCNc3cccc4ccccc34)cccc2c1 | 80.6 µM | 35.8 µM | > 100 µM | 36 µM | > 100 µM | > 100 µM | 54.8 µM | > 10 µM | > 100 µM | > 100 µM | 40.3 µM | > 100 µM | > 100 µM | 
CCC12CC[C@H](C#N)N3CCc4c(n(c5ccccc45)C(=O)C1)C32 (some centres undefined) |  | 34.3 µM | 22.5 µM |  | 29 µM | 38.5 µM | 57.5 µM | 48.9 µM | 31.2 µM | 31.9 µM | 40.4 µM | 29.8 µM | 10.2 µM | 
Cc1nc2c(s/c(=N\N)n2-c2ccccc2)c(=O)[nH]1 | > 100 µM | > 100 µM | > 100 µM | > 100 µM | > 100 µM | > 100 µM | > 100 µM | > 100 µM | > 100 µM | > 100 µM | > 100 µM | > 100 µM | > 100 µM | 
BrC12C3C4C5C(C(C43)C13OCCO3)C52 (centres undefined) | > 100 µM |  | > 100 µM | > 100 µM | > 100 µM | > 100 µM | > 100 µM | > 100 µM | > 100 µM | > 100 µM | > 100 µM | > 100 µM | > 100 µM | 
COc1ccc2c(c1)CC1NC2Cc2ccccc21 (centres undefined) | > 100 µM | > 100 µM | > 100 µM | > 100 µM | > 100 µM | > 100 µM | > 100 µM | > 100 µM | > 100 µM | > 100 µM | > 100 µM | > 100 µM | > 100 µM | 
CC1C(c2ccccc2)=CCON1c1ccccc1 (centres undefined) | > 100 µM | > 100 µM | > 100 µM | > 100 µM | > 100 µM | > 100 µM | > 100 µM | > 100 µM | > 100 µM | > 100 µM | > 100 µM | > 100 µM | > 100 µM | 
c1ccc2c(OCC3CO3)ccc(OCC3CO3)c2c1 (centres undefined) | 6.48 µM | 3.32 µM | 16.1 µM | 22.5 µM | 6.75 µM | 23.3 µM | 10.4 µM | 9.44 µM | 14.1 µM |  | 21.5 µM | 6.32 µM | 3.15 µM | 4.66 µM
N=c1oc2cc(O)c(O)cc2cc1C(N)=O | > 100 µM | > 100 µM | > 100 µM | > 100 µM | > 100 µM | > 100 µM | > 100 µM | > 100 µM | > 100 µM | > 100 µM | > 100 µM | > 100 µM | > 100 µM | 
c1cc2[se][se]c3c4cccc5[se][se]c(c(c1)c23)c54 | > 100 µM | > 100 µM | > 100 µM | > 100 µM | > 100 µM | > 100 µM | > 100 µM | > 100 µM | > 100 µM | > 100 µM | > 100 µM | > 100 µM | > 100 µM | 

— PubChem BioAssay (NCI)
